# According to patent US8569302B2, “Inhibitors of flaviviridae viruses” (Gilead Sciences, Inc., priority 2009, dated 2013):
# System: human hepatoma Huh-7 cell line harboring a HCV replicon
# Assay: HCV replicon assay (inhibition of viral replication, luciferase readout)
# Type: cell-based
# Conditions: Hepatitis C virus, 72 h, Huh-7 HCV replicon cells, 3 days incubation
# Summary of the method: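 Huh-7 replicon cells were exposed to 10-point 3-fold compound dilutions (0.44% DMSO) for 3 days at 37 °C. Replicon replication was read by Dual-Glo luciferase, with background from protease-inhibitor wells subtracted, and viability by calcein AM. EC50/CC50 came from a Hill-equation fit versus DMSO controls.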
row,SMILES,inhibition at 2 µM [%]
1,"CN(C)c1ncc(S(=O)(=O)N2CCC(N(c3cc(C#CC(C)(C)C)sc3C(=O)O)C(=O)[C@H]3CC[C@H](C)CC3)CC2)cn1 [Compound 204, 3-[[1-(2-Dimethylamino-pyrimidine-5-sulfonyl)-piperidin-4-yl]-(4-methyl-cyclohexanecarbonyl)-amino]-5-(3,3-dimethyl-but-1-ynyl)-thiophene-2-carboxylic acid]",99.1
2,"CC(C)(C)C#Cc1cc(N(C(=O)[C@H]2CC[C@H](C)CC2)C2CCN(S(=O)(=O)c3ccsc3)CC2)c(C(=O)O)s1 [Compound 205, 5-(3,3-Dimethyl-but-1-ynyl)-3-{(4-methyl-cyclohexanecarbonyl)-[1-(thiophene-3-sulfonyl)-piperidin-4-yl]-amino}-thiophene-2-carboxylic acid]",99.9
3,"Cc1nc(S(=O)(=O)N2CCC(N(c3cc(C#CC(C)(C)C)sc3C(=O)O)C(=O)[C@H]3CC[C@H](C)CC3)CC2)cn1C [Compound 206, 5-(3,3-Dimethyl-but-1-ynyl)-3-[[1-(1,2-dimethyl-1H-imidazole-4-sulfonyl)-piperidin-4-yl]-(4-methyl-cyclohexanecarbonyl)-amino]-thiophene-2-carboxylic acid]",100
4,"CC(C)(C)C#Cc1cc(N(C(=O)[C@H]2CC[C@H](C)CC2)C2CCN(S(=O)(=O)c3cccs3)CC2)c(C(=O)O)s1 [Compound 207, 5-(3,3-Dimethyl-but-1-ynyl)-3-{(4-methyl-cyclohexanecarbonyl)-[1-(thiophene-2-sulfonyl)-piperidin-4-yl]-amino}-thiophene-2-carboxylic acid]",99.8
5,"CC(C)(C)C#Cc1cc(N(C(=O)[C@H]2CC[C@H](C)CC2)C2CCN(S(=O)(=O)c3cnc(=O)[nH]c3)CC2)c(C(=O)O)s1 [Compound 208, 5-(3,3-Dimethyl-but-1-ynyl)-3-{(4-methyl-cyclohexanecarbonyl)-[1-(2-oxo-1,2-dihydro-pyrimidine-5-sulfonyl)-piperidin-4-yl]-amino}-thiophene-2-carboxylic acid]",63.8
6,"CC(C)(C)C#Cc1cc(N(C(=O)[C@H]2CC[C@H](C)CC2)C2CCN(S(=O)(=O)c3ccccn3)CC2)c(C(=O)O)s1 [Compound 209, 5-(3,3-Dimethyl-but-1-ynyl)-3-{(4-methyl-cyclohexanecarbonyl)-[1-(pyridine-2-sulfonyl)-piperidin-4-yl]-amino}-thiophene-2-carboxylic acid]",100
7,"CC(C)(C)C#Cc1cc(N(C(=O)[C@H]2CC[C@H](C)CC2)C2CCN(S(=O)(=O)c3cccnc3)CC2)c(C(=O)O)s1 [Compound 210, 5-(3,3-Dimethyl-but-1-ynyl)-3-{(4-methyl-cyclohexanecarbonyl)-[1-(pyridine-3-sulfonyl)-piperidin-4-yl]-amino}-thiophene-2-carboxylic acid]",100
8,"CC(C)(C)C#Cc1cc(N(C(=O)[C@H]2CC[C@H](C)CC2)[C@H]2CCN(S(=O)(=O)c3ccsc3)C2)c(C(=O)O)s1 [Compound 211, 5-(3,3-Dimethyl-but-1-ynyl)-3-{(4-methyl-cyclohexanecarbonyl)-[1-(thiophene-3-sulfonyl)-pyrrolidin-3-yl]-amino}-thiophene-2-carboxylic acid]",99.7
9,"Cc1nc(S(=O)(=O)N2CC[C@H](N(c3cc(C#CC(C)(C)C)sc3C(=O)O)C(=O)[C@H]3CC[C@H](C)CC3)C2)cn1C [Compound 212, 5-(3,3-Dimethyl-but-1-ynyl)-3-[[1-(1,2-dimethyl-1H-imidazole-4-sulfonyl)-pyrrolidin-3-yl]-(4-methyl-cyclohexanecarbonyl)-amino]-thiophene-2-carboxylic acid]",99.3
10,"CC(C)(C)C#Cc1cc(N(C(=O)[C@H]2CC[C@H](C)CC2)[C@H]2CCN(S(=O)(=O)c3cccs3)C2)c(C(=O)O)s1 [Compound 213, 5-(3,3-Dimethyl-but-1-ynyl)-3-{(4-methyl-cyclohexanecarbonyl)-[1-(thiophene-2-sulfonyl)-pyrrolidin-3-yl]-amino}-thiophene-2-carboxylic acid]",99.9
11,"CC(C)(C)C#Cc1cc(N(C(=O)[C@H]2CC[C@H](C)CC2)[C@H]2CCN(S(=O)(=O)c3cnc(=O)[nH]c3)C2)c(C(=O)O)s1 [Compound 214, 5-(3,3-Dimethyl-but-1-ynyl)-3-{(4-methyl-cyclohexanecarbonyl)-[1-(2-oxo-1,2-dihydro-pyrimidine-5-sulfonyl)-pyrrolidin-3-yl]-amino}-thiophene-2-carboxylic acid]",69.9
12,"CC(C)(C)C#Cc1cc(N(C(=O)[C@H]2CC[C@H](C)CC2)[C@H]2CCN(S(=O)(=O)c3ccccn3)C2)c(C(=O)O)s1 [Compound 215, 5-(3,3-Dimethyl-but-1-ynyl)-3-{(4-methyl-cyclohexanecarbonyl)-[1-(pyridine-2-sulfonyl)-pyrrolidin-3-yl]-amino}-thiophene-2-carboxylic acid]",100
13,"CC(C)(C)C#Cc1cc(N(C(=O)[C@H]2CC[C@H](C)CC2)[C@H]2CCN(S(=O)(=O)c3cccnc3)C2)c(C(=O)O)s1 [Compound 216, 5-(3,3-Dimethyl-but-1-ynyl)-3-{(4-methyl-cyclohexanecarbonyl)-[1-(pyridine-3-sulfonyl)-pyrrolidin-3-yl]-amino}-thiophene-2-carboxylic acid]",100
14,"CC(C)(C)C#Cc1cc(N(C(=O)[C@H]2CC[C@H](C)CC2)[C@H]2CC[C@@H](OC3CCOCC3)CC2)c(C(=O)O)s1 [Compound 219, 5-(3,3-dimethylbut-1-ynyl)-3-((1r,4R)-4-methyl-N-((1r,4R)-4-(tetrahydro-2H-pyran-4-yloxy)cyclohexyl)cyclohexanecarboxamido)thiophene-2-carboxylic acid]",100
15,"CC(C)(C)C#Cc1cc(N(C(=O)[C@H]2CC[C@H](C)CC2)C2CCC(O[C@@H]3CO[C@H]4OCC[C@H]43)CC2)c(C(=O)O)s1 (stereo partly drawn) [Compound 221, 5-(3,3-dimethylbut-1-ynyl)-3-((1r,4R)-4-methyl-N-(4-((3S,3aS,6aR)-tetrahydro-2H-furo[2,3-b]furan-3-yloxy)cyclohexyl)cyclohexanecarboxamido)thiophene-2-carboxylic acid]",100
16,"CC(C)(C)C#Cc1cc(N(C(=O)[C@H]2CC[C@H](C)CC2)[C@H]2CC[C@H](OC3CCN(C(=O)OC(C)(C)C)CC3)CC2)c(C(=O)O)s1 [Compound 222, 3-(N-(4-(1-(tert-butoxycarbonyl)piperidin-4-yloxy)cyclohexyl)-4-methylcyclohexanecarboxamido)-5-(3,3-dimethylbut-1-ynyl)thiophene-2-carboxylic acid]",97.7
17,"CC(C)(C)C#Cc1cc(N(C(=O)[C@H]2CC[C@H](C)CC2)[C@H]2CC[C@H](OC3CCNCC3)CC2)c(C(=O)O)s1 [Compound 223, 5-(3,3-dimethylbut-1-ynyl)-3-(4-methyl-N-(4-(piperidin-4-yloxy)cyclohexyl)cyclohexanecarboxamido)thiophene-2-carboxylic acid]",100
18,"CC(C)(C)C#Cc1cc(N(C(=O)[C@H]2CC[C@H](C)CC2)[C@H]2CC[C@H](OC3CCOC3)CC2)c(C(=O)O)s1 (some centres unmarked) [Compound 224, 5-(3,3-dimethylbut-1-ynyl)-3-(4-methyl-N-(4-(tetrahydrofuran-3-yloxy)cyclohexyl)cyclohexanecarboxamido)thiophene-2-carboxylic acid]",99.9
19,CC(C)(C)C#Cc1cc(N(C(=O)[C@H]2CC[C@H](C)CC2)[C@H]2CC[C@H](O[C@H]3CCN(C(=O)OC(C)(C)C)C3)CC2)c(C(=O)O)s1 [Compound 225],98.4
20,"CC(C)(C)C#Cc1cc(N(C(=O)[C@H]2CC[C@H](C)CC2)[C@H]2CC[C@H](O[C@H]3CCNC3)CC2)c(C(=O)O)s1 [Compound 226, 5-(3,3-dimethylbut-1-ynyl)-3-(4-methyl-N-(4-((S)-pyrrolidin-3-yloxy)cyclohexyl)cyclohexanecarboxamido)thiophene-2-carboxylic acid]",99.9
21,C[C@@H]1CC[C@@H](C(=O)N(c2cc(C#CC(C)(C)C)sc2C(=O)O)[C@H]2CC[C@H](OC3CCOC3)CC2)[C@@H](O)C1 (some centres unmarked) [Compound 227],100
22,"C[C@H]1CC[C@H](C(=O)N(c2cc(C#CC3CC3)sc2C(=O)O)[C@H]2CC[C@H](Oc3ccccn3)CC2)CC1 [Compound 229, 5-(2-cyclopropylethynyl)-3-(4-methyl-N-(4-(pyridin-2-yloxy)cyclohexyl)cyclohexanecarboxamido)thiophene-2-carboxylic acid]",82.6
23,"CC(C)(C)C#Cc1cc(N(C(=O)[C@H]2CC[C@H](C)CC2)[C@H]2CC[C@H](O[C@@H]3CCN(C(=O)OC(C)(C)C)C3)CC2)c(C(=O)O)s1 [Compound 230, 3-(N-(4-((R)-1-(tert-butoxycarbonyl)pyrrolidin-3-yloxy)cyclohexyl)-4-methylcyclohexanecarboxamido)-5-(3,3-dimethylbut-1-ynyl)thiophene-2-carboxylic acid]",98.4
24,"CC(C)(C)C#Cc1cc(N(C(=O)[C@H]2CC[C@H](C)CC2)[C@H]2CC[C@H](O[C@@H]3CCNC3)CC2)c(C(=O)O)s1 [Compound 231, 5-(3,3-dimethylbut-1-ynyl)-3-(4-methyl-N-(4-((R)-pyrrolidin-3-yloxy)cyclohexyl)cyclohexanecarboxamido)thiophene-2-carboxylic acid]",99.9
25,"CC1=CCC(C(=O)N(c2cc(C#CC(C)(C)C)sc2C(=O)O)[C@H]2CC[C@H](O[C@H]3CCOC3)CC2)[C@@H](C)C1 (stereo partly drawn) [Compound 301, 5-(3,3-dimethyl-but-1-ynyl)-3-{(4,6S-dimethyl-cyclohex-3-enecarbonyl)-[4-(tetrahydro-furan-3S-yloxy)-trans-cyclohexyl]-amino}-thiophene-2-carboxylic acid]",99.8
26,"CC1=CCC(C(=O)N(c2cc(C#CC(C)(C)C)sc2C(=O)O)[C@H]2CC[C@H](O[C@H]3CCOC3)CC2)[C@H](C)C1 (stereo partly drawn) [Compound 304, 5-(3,3-dimethyl-but-1-ynyl)-3-{(4,6R-dimethyl-cyclohex-3-enecarbonyl)-[4-(tetrahydro-furan-3S-yloxy)-trans-cyclohexyl]-amino}-thiophene-2-carboxylic acid]",100
